Test results as given in patent US20250179027A1, “CYCLOALKYL OR HETEROCYCLYL SUBSTITUTED HETEROARYL COMPOUND, AND COMPOSITION AND USE THEREOF” (Shenzhen TargetRx, Inc., priority 2022, published 2025).

Legend:
[1] = molecular target: T1, phosphorylated BTK Y223 in NIH/3T3 BTK C481S cells (Homo sapiens, UniProt Q06187, C481S); assay: Phosphor-BTK(Y223) assay, NIH/3T3 BTK C481S cells; format: cell-based; conditions: phosphorylated BTK Y223, NIH/3T3 BTK C481S cells; read-out: NIH/3T3 BTK-C481S pBTK IC50
T1 construct: expressed in transfected cells; host or cells: NIH/3T3 (mouse fibroblasts) engineered to express BTK C481S
Experimental: (§1) The purpose of this assay is to simply, quickly and directly detect the endogenous level of BTK in cells. The specific assay steps are as follows: Day 1: NIH/3T3 BTK WT cells (7.5 k/well) and NIH/3T3 BTK C481S cells (10 k/well) were plated in 96-well plates, respectively, and cultured overnight at 37° C. and 5% CO2.
(§2) • 1. A 3-fold final concentration gradient dilution of the compound was prepared, and 50 μL was added to 100 μL of cell culture; 0.5% DMSO was used as a positive control for cell growth. • 2. The plate was incubated at 37° C., 5% CO2 for 0.5 h. • 3. Na3VO4 with a final concentration of 1 mM was added, and incubated at 37° C. and 5% CO2 for 2 hours. • 4. During the incubation, the following reagents were prepared: 1× added lysis buffer: 3 vol ddH2O+1 vol 4× lysis buffer+100× blocking reagent. p-BTK (Y223) cryptate-antibody and p-BTK (Y223) d2-antibody working solutions: 1 volume of each cryopreserved antibody (stored at −20° C.) was added to 19 times volumes of assay buffer (stored at 4° C.). • 5. After the incubation, the medium was removed and 50 μL of 1× added lysis buffer was added; The mixture was centrifuged at 500 rpm for 30 min at room temperature. • 6. The lysate was mixed well and 16 μL was transferred to a 384-well plate; 1× added lysis buffer was used as a blank control. • 7. 4 μL of pre-mixed working solutions of the two antibodies (cryptate Ab:d2 Ab=1:1) were added and the plate was sealed. • 8. The plate was incubated overnight at room temperature.
(§3) Biotek cytation3.0 microplate reader was used to read the plate at 665 nm and 620 nm, and the ratio of 665/620 nm per well was calculated.
(§4) IC50 was calculated using GraphPad Prism 7.0 software.
(§5) The following nonlinear fitting formula was used to obtain the phosphorylated BTK Y223 IC50 (half phosphorylation inhibitory concentration) of the compounds:
(§6) [formula] • X: Compound concentration log value • Y: Inhibition rate (% inhibition)
(§7) The formula for calculating cell phosphorylation inhibition rate (% inhibition rate) was: […]

[2] = molecular target: T2, phosphorylated BTK Y223 in NIH/3T3 BTK WT cells (Homo sapiens, UniProt Q06187); assay: Phosphor-BTK(Y223) assay, NIH/3T3 BTK WT cells; format: cell-based; conditions: phosphorylated BTK Y223, NIH/3T3 BTK WT cells; read-out: NIH/3T3 BTK-WT pBTK IC50
T2 construct: expressed in transfected cells; host or cells: NIH/3T3 (mouse fibroblasts) engineered to express BTK WT
Experimental: as §1, §2, §3, §4, §5, §6, §7

T2 sequence (Q06187 whole entry): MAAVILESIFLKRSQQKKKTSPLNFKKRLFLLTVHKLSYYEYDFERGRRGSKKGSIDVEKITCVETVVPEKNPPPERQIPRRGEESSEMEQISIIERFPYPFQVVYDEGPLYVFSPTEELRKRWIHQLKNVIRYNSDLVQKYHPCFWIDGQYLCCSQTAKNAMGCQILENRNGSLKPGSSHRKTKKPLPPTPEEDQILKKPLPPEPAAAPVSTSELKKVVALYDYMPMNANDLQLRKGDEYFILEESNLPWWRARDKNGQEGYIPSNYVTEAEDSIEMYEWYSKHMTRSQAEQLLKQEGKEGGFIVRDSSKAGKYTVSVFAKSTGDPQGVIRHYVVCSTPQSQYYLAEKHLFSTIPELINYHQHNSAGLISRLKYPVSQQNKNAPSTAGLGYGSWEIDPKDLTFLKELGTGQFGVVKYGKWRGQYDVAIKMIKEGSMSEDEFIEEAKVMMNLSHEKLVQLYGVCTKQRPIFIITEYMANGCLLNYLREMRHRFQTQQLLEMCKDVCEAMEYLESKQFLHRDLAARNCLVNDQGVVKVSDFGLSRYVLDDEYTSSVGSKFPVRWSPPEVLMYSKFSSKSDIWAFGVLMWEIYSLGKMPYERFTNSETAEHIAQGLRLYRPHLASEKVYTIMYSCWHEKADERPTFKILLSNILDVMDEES
T1 sequence (Q06187 whole entry C481S): as the sequence (Q06187 whole entry) above, with C481S counted along it

| IC50 [1] | IC50 [2] | SMILES |
| --- | --- | --- |
| 50 to 100 nM | 25 to 50 nM | COc1ccc(F)cc1C(=O)NCc1ccc(-c2nn(C3CCCCC(O)C3)c3ncnc(N)c23)cc1 (centres unmarked) [Example 57, N-(4-(4-amino-1-(3-hydroxycycloheptyl)-1H-pyrazolo[3,4-d]pyrimidin-3-yl)benzyl)-5-fluoro-2-methoxybenzamide] |
| 50 to 100 nM | 50 to 100 nM | COc1ccc(F)cc1C(=O)NCc1ccc(-c2nn(C3CCCC(O)C3)c(N)c2C(N)=O)cc1 (single isomer, unassigned) [Example 2, 5-amino-3-(4-((5-fluoro-2-methoxybenzoylamino)methyl)phenyl)-1-(3-hydroxycyclohexyl)-1H-pyrazole-4-carboxamide] |
| 100 to 500 nM | 100 to 500 nM | COc1ccc(F)cc1C(=O)NCc1ccc(-c2nn(C3CCC(CO)OC3)c3c(=O)[nH]nc(N)c23)cc1 (single isomer, unassigned) [Example 47, N-(4-(4-amino-1-(6-(hydroxymethyl)tetrahydro-2H-pyran-3-yl)-7-oxo-6,7-dihydro-1H-pyrazolo[3,4-d]pyridazin-3-yl)benzyl)-5-fluoro-2-methoxybenzamide] |
| 25 to 50 nM | ≤ 25 nM | COc1ccc(F)cc1C(=O)NCc1ccc(-c2nn([C@@H]3C=C[C@@H](O)C3)c3ncnc(N)c23)cc1 (single isomer, unassigned) [Example 49, trans-N-(4-(4-amino-1-(4-hydroxycyclopent-2-en-1-yl)-1H-pyrazolo[3,4-d]pyrimidin-3-yl)benzyl)-5-fluoro-2-methoxybenzamide] |
| 25 to 50 nM | ≤ 25 nM | COc1ccc(F)cc1C(=O)NCc1ccc(-c2nn(C3CCCC(C)(O)C3)c3ncnc(N)c23)cc1 (single isomer, unassigned) [Example 24, N-(4-(4-amino-1-(3-hydroxy-3-methylcyclohexanyl)-1H-pyrazolo[3,4-d]pyrimidin-3-yl)benzyl)-5-fluoro-2-methoxybenzamide] |
| 100 to 500 nM | 100 to 500 nM | COc1ccc(F)cc1C(=O)NCc1ccc(-c2nn(C3CCC(CO)OC3)c(N)c2C(N)=O)cc1 (centres unmarked) [Example 12, 5-amino-3-(4-((5-fluoro-2-methoxybenzamido)methyl)phenyl)-1-(6-(hydroxymethyl)tetrahydro-2H-pyran-3-yl)-1H-pyrazole-4-carboxamide] |
| 100 to 500 nM | 100 to 500 nM | COc1ccc(F)cc1C(=O)NCc1ccc(-c2nn(C3CCCC(O)C3)c(N)c2C(N)=O)cc1 (centres unmarked) [Example 1, 5-amino-3-(4-((5-fluoro-2-methoxybenzoylamino)methyl)phenyl)-1-(3-hydroxycyclohexyl)-1H-pyrazole-4-carboxamide] |
| 50 to 100 nM | 25 to 50 nM | COc1ccc(F)cc1C(=O)NCc1ccc(-c2nn(C3CCC(O)C3)c3c(=O)[nH]nc(N)c23)cc1 (centres unmarked) [Example 41, N-(4-(4-amino-1-(3-hydroxycyclopentanyl)-7-oxo-6,7-dihydro-1H-pyrazolo[3,4-d]pyridazin-3-yl)benzyl)-5-fluoro-2-methoxybenzamide] |
| 25 to 50 nM | 25 to 50 nM | COc1ccc(F)cc1C(=O)NCc1ccc(-c2nn(C3CCCC(C)(O)C3)c3ncnc(N)c23)cc1 (single isomer, unassigned) [Example 23, N-(4-(4-amino-1-(3-hydroxy-3-methylcyclohexanyl)-1H-pyrazolo[3,4-d]pyrimidin-3-yl)benzyl)-5-fluoro-2-methoxybenzamide] |
| 100 to 500 nM | 100 to 500 nM | COc1ccc(F)cc1C(=O)NCc1ccc(-c2nn(C3CCC(CO)OC3)c3c(=O)[nH]nc(N)c23)cc1 (centres unmarked) [Example 43, N-(4-(4-amino-1-(6-(hydroxymethyl)tetrahydro-2H-pyran-3-yl)-7-oxo-6,7-dihydro-1H-pyrazolo[3,4-d]pyridazin-3-yl)benzyl)-5-fluoro-2-methoxybenzamide] |
| 50 to 100 nM | 25 to 50 nM | COc1ccc(F)cc1C(=O)NCc1ccc(-c2nn(C3CCC(CO)OC3)c3ncnc(N)c23)cc1 (single isomer, unassigned) [Example 19, N-(4-(4-amino-1-(6-(hydroxymethyl)tetrahydro-2H-pyran-3-yl)-1H-pyrazolo[3,4-d]pyrimidin-3-yl)benzyl)-5-fluoro-2-methoxybenzamide] |
| 50 to 100 nM | ≤ 25 nM | COc1ccc(F)cc1C(=O)NCc1ccc(-c2nn(C3CCC(CO)OC3)c3ncnc(N)c23)cc1 (centres unmarked) [Example 15, N-(4-(4-amino-1-(6-(hydroxymethyl)tetrahydro-2H-pyran-3-yl)-1H-pyrazolo[3,4-d]pyrimidin-3-yl)benzyl)-5-fluoro-2-methoxybenzamide] |
| 100 to 500 nM | 100 to 500 nM | COc1ccc(F)cc1C(=O)NCc1ccc(-c2nn(C3CCCC(O)C3)c(N)c2C(N)=O)cc1 (single isomer, unassigned) [Example 3, 5-amino-3-(4-((5-fluoro-2-methoxybenzamido)methyl)phenyl)-1-(3-hydroxycyclohexyl)-1H-pyrazole-4-carboxamide] |
| 100 to 500 nM | 50 to 100 nM | COc1ccc(F)cc1C(=O)NCc1ccc(-c2nn(C3CCCC(O)C3)c3c(=O)[nH]nc(N)c23)cc1 (centres unmarked) [Example 44, N-(4-(4-amino-1-(3-hydroxycyclohexanyl)-7-oxo-6,7-dihydro-1H-pyrazolo[3,4-d]pyridazin-3-yl)benzyl)-5-fluoro-2-methoxybenzamide] |
| 100 to 500 nM | 50 to 100 nM | COc1ccc(F)cc1C(=O)NCc1ccc(-c2nn([C@H]3CC[C@@H](O)CC3)c3c(=O)[nH]nc(N)c23)cc1 [Example 39, cis-N-(4-(4-amino-1-((1S,4S)-4-hydroxycyclohexanyl)-7-oxo-6,7-dihydro-1H-pyrazolo[3,4-d]pyridazin-3-yl)benzyl)-5-fluoro-2-methoxybenzamide] |

| SMILES | IC50 [1] | IC50 [2] |
| --- | --- | --- |
| COc1ccc(F)cc1C(=O)NCc1ccc(-c2nn([C@H]3CC[C@H](O)CC3)c3c(=O)[nH]nc(N)c23)cc1 [Example 40, trans-N-(4-(4-amino-1-((1R,4R)-4-hydroxycyclohexanyl)-7-oxo-6,7-dihydro-1H-pyrazolo[3,4-d]pyridazin-3-yl)benzyl)-5-fluoro-2-methoxybenzamide] | 50 to 100 nM | 25 to 50 nM |
